Laboratory results taken from patent US6420313B1, “Thienylalkylamino-1,3,5-triazines and the use thereof as herbicides” (Bayer Aktiengesellschaft, priority 1998, dated 2002).

Legend:
Type in all cases: in vivo
[1] = test system: crop plants, such as, for example, maize, barley and wheat; experiment: Post-emergence test, tolerance by crop plants; conditions: result in words
Description: (§1) Solvent: 5 parts by weight of acetone
(§2) Emulsifier: 1 part by weight of alkylaryl polyglycol ether
(§3) To produce a suitable preparation of active compound, 1 part by weight of active compound is mixed with the stated amount of solvent, the stated amount of emulsifier is added and the concentrate is diluted with water to the desired concentration.
(§4) Test plants of a height of 5-15 cm are sprayed with the preparation of active compound such that the particular amounts of active compound desired are applied per unit area. The concentration of the spray liquor is chosen so that the particular amounts of active compound desired are applied in 1000 l of water/ha.
(§5) After three weeks, the degree of damage to the plants is rated in % damage in comparison to the development of the untreated control.
(§6) 0%=no effect (like untreated control)

[2] = test system: Viola; experiment: Post-emergence test/greenhouse, Viola; conditions: 500 g of ai./ha, after three weeks
Description: as §1, §2, §3, §4, §5, §6

[3] = test system: weeds; experiment: Pre-emergence test, activity against weeds; conditions: result in words
Description: as §1, §2, §3
(§7) Seeds of the test plants are sown in normal soil. After about 24 hours, the soil is sprayed with the preparation of active compound such that the particular amount of active compound desired is applied per unit area. The concentration of the spray liquor is chosen so that the particular amount of active compound desired is applied in 1000 liters of water per hectare.
as §5, §6

[4] = test system: Ipomoea; experiment: Post-emergence test/greenhouse, Ipomoea; conditions: 500 g of ai./ha, after three weeks
Description: as §1, §2, §3, §4, §5, §6

[5] = test system: weeds; experiment: Post-emergence test, activity against weeds; conditions: result in words
Description: as §1, §2, §3, §4, §5, §6

[6] = test system: Solanum; experiment: Post-emergence test/greenhouse, Solanum; conditions: 500 g of ai./ha, after three weeks
Description: as §1, §2, §3, §4, §5, §6

[7] = test system: Digitaria; experiment: Post-emergence test/greenhouse, digitaria; conditions: 500 g of ai./ha, after three weeks
Description: as §1, §2, §3, §4, §5, §6

[8] = test system: Datura; experiment: Post-emergence test/greenhouse, Datura; conditions: 500 g of ai./ha, after three weeks
Description: as §1, §2, §3, §4, §5, §6

[9] = test system: wheat; experiment: Post-emergence test/greenhouse, wheat; conditions: 500 g of ai./ha, after three weeks
Description: as §1, §2, §3, §4, §5, §6

[10] = test system: barley; experiment: Post-emergence test/greenhouse, barley; conditions: 500 g of ai./ha, after three weeks
Description: as §1, §2, §3, §4, §5, §6

[11] = test system: crop plants, such as, for example, cotton, maize, wheat and barley; experiment: Pre-emergence test, tolerance by crop plants; conditions: result in words
Description: as §1, §2, §3, §7, §5, §6

[12] = test system: Sinapis; experiment: Post-emergence test/greenhouse, Sinapis; conditions: 1000 g of ai./ha, after three weeks
Description: as §1, §2, §3, §4, §5, §6

[13] = test system: Abutilon; experiment: Post-emergence test/greenhouse, Abutilon; conditions: 1000 g of ai./ha, after three weeks
Description: as §1, §2, §3, §4, §5, §6

[14] = test system: maize; experiment: Post-emergence test/greenhouse, maize; conditions: 1000 g of ai./ha, after three weeks
Description: as §1, §2, §3, §4, §5, §6

[15] = test system: Setaria; experiment: Post-emergence test/greenhouse, Setaria; conditions: 1000 g of ai./ha, after three weeks
Description: as §1, §2, §3, §4, §5, §6

[16] = test system: Amaranthus; experiment: Post-emergence test/greenhouse, Amaranthus; conditions: 1000 g of ai./ha, after three weeks
Description: as §1, §2, §3, §4, §5, §6

SMILES | tolerance by crop plants [1] | degree of damage, Viola [2] | activity against weeds [3] | degree of damage, Ipomoea [4] | activity against weeds [5] | degree of damage, Solanum [6] | degree of damage, Digitaria [7] | degree of damage, Datura [8] | degree of damage, wheat [9] | degree of damage, barley [10] | tolerance by crop plants [11] | degree of damage, Sinapis [12] | degree of damage, Abutilon [13] | degree of damage, maize [14] | degree of damage, Setaria [15] | degree of damage, Amaranthus [16]
CCC(CCc1cc(Br)cs1)Nc1nc(NC(C)=O)nc(C(C)F)n1 (racemic) [Example 6] | tolerated well | 100% | strong activity against weeds | 100% | strong activity against weeds | 100% | 90% | 100% | 0% | 0% | largely tolerated well |  |  |  |  | 
CC(CCCc1cccs1)Nc1nc(N)nc(C(C)(C)F)n1 (centres unmarked) [Example 1, 2-amino-4-(1-fluoro-1-methyl-ethyl)-6-(1-methyl-4-(thien-2-yl)-butylamino)-1,3,5-triazine] | tolerated well |  | strong activity against weeds |  | strong activity against weeds |  |  |  |  |  | largely tolerated well | 100% | 95% | 30% | 80% | 100%
